Test results published in patent US8986696B2, “Trans-capsular administration of p38 map kinase inhibitors into orthopedic joints” (DePuy Mitek, Inc., priority 2007, dated 2015).
Values joined by “and” are separate entries in the source; they are usually repeats but may differ in a detail not shown here. Equal entries are not always repeated.

Legend:
[1] = system: IL-1β-stimulated GAG release, bovine chondrocyte pellets / ARC tissues; assay: chondrocyte pellet culture model: GAG degradation; type: cell-based; conditions: for inhibition of GAG degradation: ARC tissues stimulated with IL-1β; for GAG Release: Pellet Assay
Summary of the method: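 Bovine chondrocyte pellets (calf articular cartilage, 2–3 weeks culture) or ARC tissue punches pretreated with compounds for 1 h at 37° C, then 3–5 days with or without 10 ng/ml IL-1β; DMSO ≤1%. Medium GAG measured by dimethylmethylene blue absorbance at 525 nm against chondroitin sulfate; reported as μg/ml or % total GAG released.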

[2] = system: rabbit anterior cruciate ligament transection (ACLT) model of osteoarthritis; assay: ACLT model, preventative dosing regimen (Example IX); type: in vivo; design: key to Trochlear Groove Erosion of Cartilage, mean score / Tibial Plateau # of Osteophytes (Medial), mean score: gross grading scale; higher score = more joint damage; key to All Condylar Effects (0-18), mean: score 0-18; higher = more joint damage
Experimental: 130 Female New Zealand white rabbits underwent ACLT on the right knee. Intra-articular injections were administered to the operated knee once per week for five weeks beginning either one or six weeks after the ACLT. All animals were euthanized one week after the administration of the fifth injection. Gross observations were made on the knee joints according to a predetermined grading scale. The stifle joints were removed. Samples were preserved in 10% neutral buffered formalin. The stifle joints were photographed using high-resolution photography.
The ACLT was performed according to the ACLT model discussed above. Animals were group housed in pens on the floor and left untreated for one week to allow healing of the surgical site. Then, once weekly for five weeks, intra-articular injections were administered. One week following the last injection, the animals were sacrificed. The total in-life portion of the preventative dosing regimen was […]. Previous studies have confirmed that the six week time-point allows sufficient degeneration changes to occur.
The study design consisted of an n=10 per group. A total of 160 μl was injected at each administration.
At the time of sacrifice the following parameters were evaluated grossly (the scale follows in parenthesis):
Each parameter was given a score. The combination of all parameters gave a Total Score (0-52). Additionally, combinations of the three subsets of data yielded scores for All Trochlear Groove Effects (0-10), All Condylar Effects (0-18) and All Tibial Plateau Effects (0-24). […] […] The grades that compose this parameter are trochlear groove thickness and erosion, all the grades in All Condylar Effects, and all grades listed under Tibial Plateau. A higher score indicates more damage to the joint. A lower score indicates less damage or more cartilage preservation in the joint. Individual results for each parameter assessed were tabulated.

Compound: C[C@H](Nc1nccc(-c2c(-c3ccc(F)cc3)nc3nc(N)ccn23)n1)c1ccccc1 [JNJ 7583979 (RWJ 351958)]
- inhibition of GAG degradation [1]: significant effect

Compound: OCCC#Cc1nc(-c2ccc(F)cc2)c(-c2ccncc2)n1CCCc1ccccc1 [JNJ 3026582 (RWJ 67657), 4-[4-(4-fluorophenyl)-1-(3-phenylpropyl)-5-(4-pyridinyl)-1H-imidazol-2-yl]-3-butyn-1-ol]
- inhibition of GAG degradation [1]: significant effect
- All Cartilage Effects (0-40), mean [2]: 4.3+1.8 and 4.3
- All Condylar Effects (0-18), mean [2]: 1.6 ± 1.3 and 1.6
- All Tibial Plateau Effects (0-24), mean [2]: 3.7
- All Trochlear Groove Effects (0-10), mean [2]: 6.6
- Femoral Condyle % Surface Area Erosion (Lateral), mean score [2]: 0.4 ± 0.3 and 0.4
- Femoral Condyle % Surface Area Erosion (Medial), mean score [2]: 0.5 ± 0.4 and 0.5
- Femoral Condyle Depth of Erosion (Lateral), mean score [2]: 0.4 ± 0.3 and 0.4
- Femoral Condyle Depth of Erosion (Medial), mean score [2]: 0.3+0.3 and 0.3
- Femoral Condyle Presence of Clefts, mean score [2]: 0
- Tibial Plateau # of Osteophytes (Lateral), mean score [2]: 0.6
- Tibial Plateau # of Osteophytes (Medial), mean score [2]: 1.7
- Tibial Plateau % Surface Area Erosion (Lateral), mean score [2]: 0.7
- Tibial Plateau % Surface Area Erosion (Medial), mean score [2]: 0
- Tibial Plateau Depth of Erosion (Lateral), mean score [2]: 0.7
- Tibial Plateau Depth of Erosion (Medial), mean score [2]: 0
- Tibial Plateau Presence of Clefts (Lateral), mean score [2]: 0
- Tibial Plateau Presence of Clefts (Medial), mean score [2]: 0
- Total Score (0-52), mean [2]: 11.9 ± 2.2 and 11.9
- Trochlear Groove # of Osteophytes, mean score [2]: 2.8
- Trochlear Groove Erosion of Cartilage, mean score [2]: 1.3
- Trochlear Groove Osteophyte Size, mean score [2]: 2.5
- Trochlear Groove Thickening, mean score [2]: 0

Compound: CC(C(=O)O)c1ccc(C(=O)c2cccs2)cc1 (stereo not drawn) [Suprofen, reference compound]
- GAG Release [1]: No effect
- All Cartilage Effects (0-40), mean [2]: 6.8
- All Condylar Effects (0-18), mean [2]: 4.1
- All Tibial Plateau Effects (0-24), mean [2]: 3.1
- All Trochlear Groove Effects (0-10), mean [2]: 7.1
- Femoral Condyle % Surface Area Erosion (Lateral), mean score [2]: 2.1
- Femoral Condyle % Surface Area Erosion (Medial), mean score [2]: 0.1+0.1 and 0.1
- Femoral Condyle Depth of Erosion (Lateral), mean score [2]: 1.6
- Femoral Condyle Depth of Erosion (Medial), mean score [2]: 0.3+0.3 and 0.3
- Femoral Condyle Presence of Clefts, mean score [2]: 0
- Tibial Plateau # of Osteophytes (Lateral), mean score [2]: 0.5
- Tibial Plateau # of Osteophytes (Medial), mean score [2]: 1.1
- Tibial Plateau % Surface Area Erosion (Lateral), mean score [2]: 0.9
- Tibial Plateau % Surface Area Erosion (Medial), mean score [2]: 0
- Tibial Plateau Depth of Erosion (Lateral), mean score [2]: 0.5
- Tibial Plateau Depth of Erosion (Medial), mean score [2]: 0
- Tibial Plateau Presence of Clefts (Lateral), mean score [2]: 0
- Tibial Plateau Presence of Clefts (Medial), mean score [2]: 0
- Total Score (0-52), mean [2]: 14.1
- Trochlear Groove # of Osteophytes, mean score [2]: 2.8
- Trochlear Groove Erosion of Cartilage, mean score [2]: 1.5
- Trochlear Groove Osteophyte Size, mean score [2]: 2.8
- Trochlear Groove Thickening, mean score [2]: 0

Compound: CC(=O)Oc1cccc2c1C(=O)c1c(OC(C)=O)cc(C(=O)O)cc1C2=O [Diacerein, reference compound]
- lowest concentration inhibiting proteoglycan degradation ([1]; 10 ng/ml IL-1β, five days): ≤ 0.054 µM

Compound: CC(=O)N1CCN(c2c(-c3ccncc3)c(-c3ccc(F)cc3)c(C#N)n2C)CC1 [JNJ 17089540 (RWJ 669307)]
- inhibition of GAG degradation [1]: little effect
- GAG Release [1]: No effect
- All Cartilage Effects (0-40), mean [2]: 5.8+2.0 and 5.8
- All Condylar Effects (0-18), mean [2]: 2.7 ± 1.3 and 2.7
- All Tibial Plateau Effects (0-24), mean [2]: 4.1
- All Trochlear Groove Effects (0-10), mean [2]: 6.2
- Femoral Condyle % Surface Area Erosion (Lateral), mean score [2]: 1.2
- Femoral Condyle % Surface Area Erosion (Medial), mean score [2]: 0.3+0.3 and 0.3
- Femoral Condyle Depth of Erosion (Lateral), mean score [2]: 0.2+0.2 and 0.2
- Femoral Condyle Depth of Erosion (Medial), mean score [2]: 0.2+0.2 and 0.2
- Femoral Condyle Presence of Clefts, mean score [2]: 0
- Tibial Plateau # of Osteophytes (Lateral), mean score [2]: 0.4
- Tibial Plateau # of Osteophytes (Medial), mean score [2]: 1.4
- Tibial Plateau % Surface Area Erosion (Lateral), mean score [2]: 1.3
- Tibial Plateau % Surface Area Erosion (Medial), mean score [2]: 0
- Tibial Plateau Depth of Erosion (Lateral), mean score [2]: 0.8
- Tibial Plateau Depth of Erosion (Medial), mean score [2]: 0
- Tibial Plateau Presence of Clefts (Lateral), mean score [2]: 0
- Tibial Plateau Presence of Clefts (Medial), mean score [2]: 0
- Total Score (0-52), mean [2]: 12.9 ± 2.3 and 12.9
- Trochlear Groove # of Osteophytes, mean score [2]: 2.6
- Trochlear Groove Erosion of Cartilage, mean score [2]: 1.0
- Trochlear Groove Osteophyte Size, mean score [2]: 2.7
- Trochlear Groove Thickening, mean score [2]: 0
